The source of these data is ChEMBL document CHEMBL1201862, “PubChem BioAssay data set” (2004).

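Cultured in 96-well plates, cells were exposed to test compound for 48 hours across five concentrations. GI50 marks 50% less growth.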 Activity calls are given as the source filed them. Rule as the data show it: active = GI50 up to about 1.1 µM and inactive = higher.

Common to all, as to experiment: NCI tumour cell line growth inhibition, 48 h
The test system of experiment [1] is A498.
Experiment [2] has as its system CAKI-1.
The subject of experiment [3] is DU-145.
In experiment [4] the test system is HCT-116.
Experiment [5] deals with HL-60.
In experiment [6] the test system is Hs-578T.
For experiment [7], the system named is LOX IMVI.
In experiment [8] the test system is MDA-MB-231.
The test system of experiment [9] is MDA-MB-435.
For experiment [10], the system named is NCI-H226.
In experiment [11] the test system is NCI/ADR-RES.
The subject of experiment [12] is PC-3.
For experiment [13], the system named is RXF 393.
Experiment [14] relates to SF-268.
Experiment [15] relates to SF-539.
Experiment [16] relates to SK-MEL-5.
Experiment [17] relates to SK-OV-3.
Experiment [18] relates to SNB-19.
For experiment [19], the system named is SNB-75.
The test system of experiment [20] is UACC-257.

For the molecule `C[C@]12C=CC(=O)C=C1CC[C@@H]1[C@@H]2CC[C@]2(C)OC(=O)CC[C@@H]12` [TESTOLACTONE], the GI50 is 347 µM (inactive) in experiment [1]; 372 µM (inactive) in experiment [2]; > 343 µM (inactive) in experiment [3]; > 466 µM (inactive) in [4]; 310 µM (inactive) in [5]; 319 µM (inactive) in [6]. In addition, the GI50 in experiment [7] is > 492 µM (inactive); in [8], 327 µM (inactive); in experiment [9] it was > 500 µM (inactive); in experiment [10] it was 417 µM (inactive); in [11] it was > 492 µM (inactive); in experiment [12], > 500 µM (inactive). The GI50 in [13] was 437 µM (inactive); in [14] it was > 489 µM (inactive); in [15], 454 µM (inactive); in experiment [16], 429 µM (inactive); in [17] it was > 479 µM (inactive); in experiment [18], > 500 µM (inactive). For the same molecule, the GI50 in experiment [19] was 292 µM (inactive); in [20] it was 389 µM (inactive).

Consider `O=C1CC(=O)n2cnc3cccc(c32)N1`, for which the GI50 in experiment [1], in [2], in [3], in experiment [4], in [5] and in [6] was > 100 µM (inactive) throughout. In addition, the GI50 in [8], in [9], in experiment [10], in [11], in [12] and in experiment [13] was > 100 µM (inactive) each time. The GI50 in [14], in experiment [15], in experiment [16], in [17], in experiment [18] and in experiment [19] was > 100 µM (inactive) each time. For the same molecule, the GI50 in experiment [20] is > 100 µM (inactive).

Take `O=[N+]([O-])c1ccc(-c2cc(O)c3nc4ccccc4n3c2)cc1`: the GI50 in experiment [1], in experiment [2], in experiment [3], in [4], in experiment [5] and in [6] was > 100 µM (inactive) each time. Further, the GI50 is > 100 µM (inactive) in [7]; > 100 µM (inactive) in experiment [8]; > 31.6 µM (inactive) in experiment [9]; > 100 µM (inactive) in experiment [10]; > 100 µM (inactive) in [11]; > 100 µM (inactive) in experiment [12]. Further, the GI50 in [13] is > 100 µM (inactive); in [14], > 56.5 µM (inactive); in experiment [15] it was > 100 µM (inactive); in [16] it was > 100 µM (inactive); in experiment [17], 22.8 µM (inactive); in experiment [18], > 53.7 µM (inactive). The GI50 in [19] was > 40.9 µM (inactive); in experiment [20] it was > 100 µM (inactive).

As for `CCOC(=O)Oc1cc2c(c(OC)c1OC)-c1ccc(OC)c(=O)cc1C(NC(C)=O)CC2` (configuration not stated), the GI50 in experiment [1] is 0.0541 µM (active); in [2] it was 0.239 µM (active); in [3], 0.1 µM (active); in experiment [4] it was 0.0149 µM (active); in experiment [5], < 0.0118 µM (active); in experiment [6], 0.0619 µM (active). Besides, the GI50 is 0.0153 µM (active) in experiment [7]; 0.0281 µM (active) in experiment [8]; < 0.01 µM (active) in [9]; 0.183 µM (active) in experiment [10]; 9.33 µM (inactive) in experiment [11]; 0.0278 µM (active) in experiment [12]. Further, the GI50 in [13] is < 0.0137 µM (active); in experiment [14], 0.0197 µM (active); in experiment [15], 0.0138 µM (active); in [16], 0.0116 µM (active); in experiment [17], 0.114 µM (active); in experiment [18], 0.0277 µM (active). The GI50 was 0.0119 µM (active) in [19] and 0.0146 µM (active) in experiment [20].

Take `O=C(Nc1ccccc1)N(CCCCN(Cc1ccccc1)C(=O)Nc1ccccc1)Cc1ccccc1`: the GI50 in [1] was > 100 µM (inactive); in experiment [2], > 100 µM (inactive); in experiment [3], > 100 µM (inactive); in experiment [4], 30.1 µM (inactive); in experiment [5], > 100 µM (inactive); in [6] it was > 100 µM (inactive). For the same molecule, the GI50 in experiment [7] was > 100 µM (inactive); in [8], 48.6 µM (inactive); in [9], > 100 µM (inactive); in experiment [10] it was > 100 µM (inactive); in [11] it was > 100 µM (inactive); in experiment [12], > 100 µM (inactive). Moreover, the GI50 is 43.8 µM (inactive) in experiment [13]; > 100 µM (inactive) in experiment [14]; > 100 µM (inactive) in [16]; > 100 µM (inactive) in experiment [17]; 38 µM (inactive) in experiment [18]; 27.7 µM (inactive) in [19]. Besides, the GI50 in experiment [20] was > 100 µM (inactive).

As for `COP(=O)(OC)/C(=C\c1cn(C(c2ccccc2)(c2ccccc2)c2ccccc2)cn1)NC(C)=O`, the GI50 is > 100 µM (inactive) in experiment [1]; > 100 µM (inactive) in experiment [2]; > 100 µM (inactive) in experiment [3]; 58.5 µM (inactive) in [4]; 53.8 µM (inactive) in experiment [5]; > 100 µM (inactive) in experiment [6]. Besides, the GI50 in experiment [7], in experiment [8], in experiment [9], in [10], in experiment [11] and in experiment [12] was > 100 µM (inactive) throughout. Also, the GI50 is 30.6 µM (inactive) in [13]; > 100 µM (inactive) in experiment [14]; > 100 µM (inactive) in [15]; > 100 µM (inactive) in experiment [17]; > 100 µM (inactive) in experiment [18]; > 100 µM (inactive) in [19]. Besides, the GI50 in experiment [20] is 62.5 µM (inactive).

`COC(=O)c1ccccc1C#CCCCOS(C)(=O)=O`: the GI50 in [1], in experiment [2], in [3], in experiment [4], in experiment [5] and in experiment [6] was > 10 µM (inactive) each time. For the same molecule, the GI50 in experiment [7], in experiment [8], in [9], in experiment [10], in experiment [11] and in experiment [12] was > 10 µM (inactive) each time. Further, the GI50 in experiment [13], in experiment [14], in [15], in experiment [16], in experiment [17] and in experiment [18] was > 10 µM (inactive) in each case. Besides, the GI50 in experiment [20] was > 10 µM (inactive).

For the molecule `COc1ccc(/C=C/NC=O)cc1`, the GI50 in experiment [1], in experiment [3], in experiment [4], in experiment [5], in [6] and in [7] was > 100 µM (inactive) in each case. Besides, the GI50 in [8] is 89.5 µM (inactive); in experiment [9], > 100 µM (inactive); in experiment [10] it was > 100 µM (inactive); in experiment [11], > 100 µM (inactive); in experiment [12], > 100 µM (inactive); in [13], > 100 µM (inactive). In addition, the GI50 in [14] was > 100 µM (inactive); in experiment [15], > 100 µM (inactive); in [16], > 100 µM (inactive); in [17], > 100 µM (inactive); in [18], > 100 µM (inactive); in [19], 18.1 µM (inactive). The GI50 in experiment [20] is > 100 µM (inactive).

On to `N=C(N)Nc1ccc(CC(N)NCC(=O)O)cc1` (configuration not stated), for which the GI50 in [1], in [2], in experiment [3], in experiment [4], in experiment [5] and in [6] was > 25 µM (inactive) in each case. For the same molecule, the GI50 in experiment [7], in experiment [8], in [9], in [10], in experiment [11] and in experiment [12] was > 25 µM (inactive) in each case. Further, the GI50 in experiment [13], in experiment [14], in [16], in experiment [17], in experiment [19] and in experiment [20] was > 25 µM (inactive) throughout.

`C=CCOc1ccc(C2C(C(=O)OCC)C(=O)CC(C)(O)C2C(=O)OCC)cc1OC` (configuration not stated): the GI50 in [1], in [2], in experiment [3], in [4], in experiment [5] and in [6] was > 100 µM (inactive) in each case. Moreover, the GI50 in experiment [7], in experiment [8], in experiment [9], in [10], in experiment [11] and in experiment [12] was > 100 µM (inactive) in each case. In addition, the GI50 in experiment [13], in [14], in experiment [15], in experiment [16], in experiment [18] and in [19] was > 100 µM (inactive) in each case. Further, in [20], the GI50 was > 100 µM (inactive).
